# Measured values reported in ChEMBL document CHEMBL1144883, “Design, synthesis, and SAR of potent and selective dipeptide-derived inhibitors for dipeptidyl peptidases” (J Med Chem, 2003).
# Biological target: T1, Dipeptidyl peptidase 2 (Homo sapiens, UniProt Q9UHL4)
# Assay: Inhibitory activity of compound against Dipeptidylpeptidase II (DPP II)
row,Compound,IC50 [µM]
1,N#C[C@@H]1CCCCN1C(=O)C(N)CCN (stereo partly drawn),0.038

# Biological target: T2, Dipeptidyl peptidase 4 (Homo sapiens, UniProt P27487)
# T2 sequence (P27487 whole entry): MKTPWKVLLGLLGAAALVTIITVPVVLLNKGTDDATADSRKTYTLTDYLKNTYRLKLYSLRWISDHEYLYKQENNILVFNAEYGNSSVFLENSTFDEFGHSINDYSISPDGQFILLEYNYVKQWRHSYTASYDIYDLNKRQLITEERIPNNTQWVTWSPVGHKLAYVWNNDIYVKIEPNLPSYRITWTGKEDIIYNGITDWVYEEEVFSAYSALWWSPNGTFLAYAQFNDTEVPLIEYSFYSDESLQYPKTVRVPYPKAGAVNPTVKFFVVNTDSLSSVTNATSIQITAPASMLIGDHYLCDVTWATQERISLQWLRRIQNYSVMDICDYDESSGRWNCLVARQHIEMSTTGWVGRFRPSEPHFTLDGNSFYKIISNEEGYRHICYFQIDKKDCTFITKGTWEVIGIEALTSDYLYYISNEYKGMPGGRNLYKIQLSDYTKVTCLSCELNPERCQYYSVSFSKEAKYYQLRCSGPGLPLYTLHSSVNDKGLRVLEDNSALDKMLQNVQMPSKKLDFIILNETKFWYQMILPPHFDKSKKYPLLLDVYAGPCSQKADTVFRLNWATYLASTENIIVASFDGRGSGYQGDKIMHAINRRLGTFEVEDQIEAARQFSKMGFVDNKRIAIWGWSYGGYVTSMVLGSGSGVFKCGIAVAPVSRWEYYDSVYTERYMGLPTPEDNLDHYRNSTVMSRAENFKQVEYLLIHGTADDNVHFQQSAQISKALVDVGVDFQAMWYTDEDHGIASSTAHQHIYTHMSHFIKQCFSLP
row,Compound,IC50 [µM]
1,NCCCCC(N)C(=O)N1CCC(O)C1 (stereo not drawn),500
2,N#CC1CCCCN1C(=O)C(N)CCCCN (stereo not drawn),51
3,NCCCCC(N)C(=O)N1CCC(OC(=O)c2ccccc2)C1 (stereo not drawn),> 1000
4,N=C(N)NCCCC(N)C(=O)N1CCCCC1 (stereo not drawn),18.1
5,CCCC(N)C(=O)N1CCCCC1 (stereo not drawn),229
6,CCC(C)C(N)C(=O)N(CC)CC (stereo not drawn),> 500
7,NCC[C@@H](N)C(=O)N1CCCCC1,> 1000
8,NCCCC[C@@H](N)C(=S)N1CCCCC1,> 1000
9,N#C[C@@H]1CCCCN1C(=O)C(N)CCN (stereo partly drawn),151
10,NC(CO)C(=O)N1CCCCC1 (stereo not drawn),67
11,CCCCC(N)C(=O)N1CCCCC1 (stereo not drawn),250
12,NCC(N)C(=O)N1CCCCC1 (stereo not drawn),> 1000
13,CCC(C)C(N)C(=O)N1CCC(O)C1 (stereo not drawn),93
14,CCC(C)C(N)C(=O)N(C)C (stereo not drawn),360
15,NC(C(=O)N1CCCCC1)C1CCCCC1 (stereo not drawn),217
16,CCC(C)C(N)C(=O)N1CCC(OC(=O)c2ccccc2)C1 (stereo not drawn),> 500
17,CCC(C)C(N)C(=O)N1CCCCCC1 (stereo not drawn),374
18,CCC(C)C(N)C(=O)NC1CCCC1 (stereo not drawn),> 1000
19,CCC(C)C(N)C(=O)N1CCC(F)C1 (stereo not drawn),3.5
20,CCC(N)C(=O)N1CCCCC1 (stereo not drawn),250
21,NCCC(N)C(=O)N1CCNCC1 (stereo not drawn),> 1000
22,NCC[C@H](N)C(=S)N1CCCCC1,> 1000

row,Compound,IC50 [µM]
1,NCCCC(N)C(=O)N1CCSC1 (stereo not drawn),81
2,NCCCCC(N)C(=O)N1CCSC1 (stereo not drawn),318
3,NCCCCC(N)C(=O)N1CCCCCC1 (stereo not drawn),> 1000
4,NCCC(N)C(=O)N1CCOCC1 (stereo not drawn),> 1000
5,CCCN(C)C(=O)C(N)C(C)CC (stereo not drawn),377
6,O=C(C1CCCS1)N1CCCC1 (stereo not drawn),> 500
7,O=C(CNC1CCCC1)NC(c1ccccc1)P(=O)(Oc1ccccc1)Oc1ccccc1 (stereo not drawn),> 125
8,CCC(C)C(N)C(=O)N1CCC1 (stereo not drawn),50.4
9,NCCCCC(N)C(=O)N1CCC1 (stereo not drawn),500
10,NCCC[C@H](N)C(=S)N1CCCCC1,> 1000
11,NCCC(N)C(=O)N1CCSC1 (stereo not drawn),289
12,CCC(C)C(N)C(=O)N1CCC(N=[N+]=[N-])C1 (stereo not drawn),107
13,NCCCCC(N)C(=O)N1CC=CCC1 (stereo not drawn),> 500
14,CCC(C)C(N)C(=O)N(C)CC (stereo not drawn),167
15,CCC(C)C(N)C(=O)N1CC=CCC1 (stereo not drawn),52
16,N#C[C@@H]1CCCN1C(=O)[C@@H](N)CCCCN,0.32
17,NCCCC[C@H](N)C(=O)N1CCCCC1 (stereo in doubt; 8.4),247
18,NCCCC[C@H](N)C(=O)N1CCCCC1 (stereo in doubt; 9.5),135
19,NCCC(N)C(=O)N1CCCCC1 (stereo in doubt; 9.7),> 1000
20,NCCC(N)C(=O)N1CCCCC1 (stereo in doubt; 9.9),500
21,NCCC(N)C(=O)N1CCCCC1 (stereo in doubt; 9.10),> 1000

# Biological target: T1, Dipeptidyl peptidase 2
row,Compound,IC50 [µM]
1,NCCCCC(N)C(=O)N1CCC(O)C1 (stereo not drawn),48
2,[N-]=[N+]=NC1CCN(C(=O)C(N)CCCCN)C1 (stereo not drawn),4.9
3,N#CC1CCCCN1C(=O)C(N)CCCCN (stereo not drawn),1.5
4,NCCCCC(N)C(=O)N1CCC(OC(=O)c2ccccc2)C1 (stereo not drawn),78.1
5,N=C(N)NCCCC(N)C(=O)N1CCCCC1 (stereo not drawn),0.63
6,CCCC(N)C(=O)N1CCCCC1 (stereo not drawn),57.1
7,CCC(C)C(N)C(=O)N(CC)CC (stereo not drawn),> 500
8,NCC[C@@H](N)C(=O)N1CCCCC1,130
9,NCCCC[C@@H](N)C(=S)N1CCCCC1,0.49
10,NC(CO)C(=O)N1CCCCC1 (stereo not drawn),62
11,CCCCC(N)C(=O)N1CCCCC1 (stereo not drawn),32.4
12,NCC(N)C(=O)N1CCCCC1 (stereo not drawn),1.84
13,CCC(C)C(N)C(=O)N1CCC(O)C1 (stereo not drawn),299
14,CCC(C)C(N)C(=O)N(C)C (stereo not drawn),> 1000
15,NC(C(=O)N1CCCCC1)C1CCCCC1 (stereo not drawn),9.9
16,CCC(C)C(N)C(=O)N1CCC(OC(=O)c2ccccc2)C1 (stereo not drawn),158
17,CCC(C)C(N)C(=O)N1CCCCCC1 (stereo not drawn),228
18,CCC(C)C(N)C(=O)NC1CCCC1 (stereo not drawn),500
19,CCC(C)C(N)C(=O)N1CCC(F)C1 (stereo not drawn),111
20,CCC(N)C(=O)N1CCCCC1 (stereo not drawn),88.7
21,NCCC(N)C(=O)N1CCNCC1 (stereo not drawn),29.3
22,NCC[C@H](N)C(=S)N1CCCCC1,0.22
23,CCC(C)C(N)C(=O)N1CC=CC1 (stereo not drawn),288
24,NCCCC(N)C(=O)N1CCSC1 (stereo not drawn),0.75

row,Compound,IC50 [µM]
1,NCCCCC(N)C(=O)N1CCSC1 (stereo not drawn),3
2,NCCCCC(N)C(=O)N1CCCCCC1 (stereo not drawn),51.9
3,NCCC(N)C(=O)N1CCOCC1 (stereo not drawn),0.51
4,CCCN(C)C(=O)C(N)C(C)CC (stereo not drawn),213
5,O=C(C1CCCS1)N1CCCC1 (stereo not drawn),> 500
6,CCC(C)C(N)C(=O)N1CCC1 (stereo not drawn),730
7,NCCCCC(N)C(=O)N1CCC1 (stereo not drawn),159
8,NCCC[C@H](N)C(=S)N1CCCCC1,0.2
9,NCCC(N)C(=O)N1CCSC1 (stereo not drawn),0.14
10,CCC(C)C(N)C(=O)N1CCC(N=[N+]=[N-])C1 (stereo not drawn),43
11,NCCCCC(N)C(=O)N1CC=CCC1 (stereo not drawn),10.9
12,O=C([C@@H]1CCCN1)N1CCCC1,> 500
13,CCC(C)C(N)C(=O)N(C)CC (stereo not drawn),> 500
14,CCC(C)C(N)C(=O)N1CC=CCC1 (stereo not drawn),52
15,N#C[C@@H]1CCCN1C(=O)[C@@H](N)CCCCN,1
16,N[C@@H](CC(=O)O)C(=O)N1CCCC1,> 500
17,CCC(C)C(N)C(=O)N1CCCCC1 (stereo not drawn),59
18,NCC(=O)N1CCCC1,> 1000
19,NCCCC[C@H](N)C(=O)N1CCCCC1 (stereo in doubt; 8.4),1.6
20,NCCCC[C@H](N)C(=O)N1CCCCC1 (stereo in doubt; 9.5),2.1
21,NCCC(N)C(=O)N1CCCCC1 (stereo in doubt; 9.7),0.13
22,NCCC(N)C(=O)N1CCCCC1 (stereo in doubt; 9.9),1.15
23,NCCC(N)C(=O)N1CCCCC1 (stereo in doubt; 9.10),191

# Biological target: T2, Dipeptidyl peptidase 4
# Remark: another data set of the same source
row,Compound,IC50 [µM]
1,NCCCCC(N)C(=O)N1CCSC1 (stereo not drawn),318

# Biological target: T1, Dipeptidyl peptidase 2
# Remark: another data set of the same source
row,Compound,IC50 [µM]
1,NCCCCC(N)C(=O)N1CCSC1 (stereo not drawn),3
